Results: PubChem BioAssay (NCI)
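Values below derive from 48-hour exposures of cells grown in 96-well plates, with endpoints linearly interpolated between the two concentrations bracketing the appropriate inhibition level. The concentration for full growth arrest is given as TGI.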

Tests used:
Test in all cases: NCI tumour cell line growth inhibition, 48 h
[1] = test system: 786-0 renal
[2] = test system: A549 NSCLC
[3] = test system: ACHN renal
[4] = test system: BT-549 breast
[5] = test system: CAKI-1 renal
[6] = test system: CCRF-CEM leukemia
[7] = test system: COLO 205 colon
[8] = test system: DU-145 prostate
[9] = test system: EKVX NSCLC
[10] = test system: HCC-2998 colon
[11] = test system: HCT-116 colon
[12] = test system: HCT-15 colon
[13] = test system: HL-60(TB) leukemia
[14] = test system: HOP-62 NSCLC
[15] = test system: HS 578T breast
[16] = test system: HT29 colon
[17] = test system: IGROV1 ovarian
[18] = test system: K-562 leukemia
[19] = test system: KM12 colon
[20] = test system: LOX IMVI melanoma
[21] = test system: MALME-3M melanoma
[22] = test system: MCF7 breast
[23] = test system: MDA-MB-231 breast
[24] = test system: MDA-MB-435
[25] = test system: MDA-N
[26] = test system: MOLT-4 leukemia
[27] = test system: NCI-H226 lung
[28] = test system: NCI-H23 lung
[29] = test system: NCI-H460 lung
[30] = test system: NCI-H522 lung
[31] = test system: NCI/ADR-RES ovarian
[32] = test system: OVCAR-3 ovarian
[33] = test system: OVCAR-5 ovarian
[34] = test system: OVCAR-8 ovarian
[35] = test system: PC-3 prostate
[36] = test system: RPMI-8226 leukemia
[37] = test system: RXF 393 renal
[38] = test system: SF-268 CNS
[39] = test system: SF-295 CNS
[40] = test system: SF-539 CNS
[41] = test system: SK-MEL-28 melanoma
[42] = test system: SN12C renal
[43] = test system: SNB-19 CNS
[44] = test system: SNB-75 CNS
[45] = test system: SR leukemia
[46] = test system: SW-620 colon
[47] = test system: T-47D breast
[48] = test system: TK-10 renal
[49] = test system: U251 CNS
[50] = test system: UACC-257 melanoma
[51] = test system: UACC-62 melanoma
[52] = test system: UO-31 renal
[53] = test system: A498 renal
[54] = test system: HOP-92 NSCLC
[55] = test system: M14 melanoma
[56] = test system: OVCAR-4 ovarian
[57] = test system: SK-MEL-2 melanoma
[58] = test system: SK-MEL-5 melanoma
[59] = test system: SK-OV-3 ovarian

CC(=O)N1CCN(CCCCN2c3ccccc3Sc3cc(N=[N+]=[N-])ccc32)CC1
TGI [1]: 29.5 µM
TGI [2]: 30 µM
TGI [3]: 28.2 µM
TGI [4]: 31.6 µM
TGI [5]: 24.9 µM
TGI [6]: 33.2 µM
TGI [7]: 29.7 µM
TGI [8]: 32.1 µM
TGI [9]: 32.7 µM
TGI [10]: 28.5 µM
TGI [11]: 26.7 µM
TGI [12]: 28.1 µM
TGI [13]: 27.3 µM
TGI [14]: 27.4 µM
TGI [15]: 32.7 µM
TGI [16]: 27.8 µM
TGI [17]: 29.1 µM
TGI [18]: 31.3 µM
TGI [19]: 28.2 µM
TGI [20]: 30.9 µM
TGI [21]: 33 µM
TGI [22]: 28.9 µM
TGI [23]: 26.7 µM
TGI [24]: 29 µM
TGI [25]: 30.5 µM
TGI [26]: 25.3 µM
TGI [27]: 35.5 µM
TGI [28]: 30.1 µM
TGI [29]: 28.1 µM
TGI [30]: 26.3 µM
TGI [31]: 27.4 µM
TGI [32]: 25.3 µM
TGI [33]: 26.6 µM
TGI [34]: 32 µM
TGI [35]: 20 µM
TGI [36]: 29.1 µM
TGI [37]: 24.4 µM
TGI [38]: 39.1 µM
TGI [39]: 31.5 µM
TGI [40]: 31.8 µM
TGI [41]: 33.4 µM
TGI [42]: 31.4 µM
TGI [43]: 29.6 µM
TGI [44]: 26.2 µM
TGI [45]: 26.5 µM
TGI [46]: 29.3 µM
TGI [47]: 15.2 µM
TGI [48]: 31.3 µM
TGI [49]: 27.6 µM
TGI [50]: 40.2 µM
TGI [51]: 9.21 µM
TGI [52]: 23.5 µM

COC(=O)[C@@H](NC(=O)c1ccc(CNC(=O)/C(C)=C/c2ccccc2)cc1)C(C)C
TGI [1]: > 100 µM
TGI [53]: > 100 µM
TGI [2]: > 100 µM
TGI [3]: > 100 µM
TGI [4]: > 100 µM
TGI [5]: > 100 µM
TGI [6]: > 100 µM
TGI [7]: > 100 µM
TGI [8]: > 100 µM
TGI [9]: > 100 µM
TGI [10]: 79.9 µM
TGI [11]: > 100 µM
TGI [12]: > 100 µM
TGI [14]: > 100 µM
TGI [54]: > 100 µM
TGI [16]: > 100 µM
TGI [17]: > 100 µM
TGI [18]: > 100 µM
TGI [19]: > 100 µM
TGI [20]: > 100 µM
TGI [55]: > 100 µM
TGI [21]: > 100 µM
TGI [22]: > 100 µM
TGI [23]: > 100 µM
TGI [24]: > 100 µM
TGI [25]: > 100 µM
TGI [26]: > 100 µM
TGI [27]: > 100 µM
TGI [28]: > 100 µM
TGI [29]: > 100 µM
TGI [30]: > 100 µM
TGI [31]: > 100 µM
TGI [32]: > 100 µM
TGI [56]: > 100 µM
TGI [33]: > 100 µM
TGI [34]: > 100 µM
TGI [35]: > 100 µM
TGI [36]: > 100 µM
TGI [37]: > 100 µM
TGI [38]: > 100 µM
TGI [39]: > 100 µM
TGI [40]: > 100 µM
TGI [57]: > 100 µM
TGI [41]: > 100 µM
TGI [58]: > 100 µM
TGI [59]: > 100 µM
TGI [42]: > 100 µM
TGI [43]: > 100 µM
TGI [44]: > 100 µM
TGI [45]: > 100 µM
TGI [46]: > 100 µM
TGI [47]: > 100 µM
TGI [48]: > 100 µM
TGI [49]: > 100 µM
TGI [50]: 39 µM
TGI [51]: > 100 µM
TGI [52]: > 100 µM

C=CC(=C)CCC(Br)C(C)(C)Cl (centres undefined)
TGI [1]: > 100 µM
TGI [2]: > 100 µM
TGI [3]: > 100 µM
TGI [4]: > 100 µM
TGI [6]: > 100 µM
TGI [7]: > 100 µM
TGI [8]: > 100 µM
TGI [9]: > 100 µM
TGI [10]: > 100 µM
TGI [11]: > 100 µM
TGI [12]: > 100 µM
TGI [13]: > 100 µM
TGI [14]: > 100 µM
TGI [54]: > 100 µM
TGI [15]: > 100 µM
TGI [16]: > 100 µM
TGI [17]: > 100 µM
TGI [18]: > 100 µM
TGI [19]: > 100 µM
TGI [55]: > 100 µM
TGI [21]: > 100 µM
TGI [22]: > 100 µM
TGI [23]: > 100 µM
TGI [24]: > 100 µM
TGI [25]: > 100 µM
TGI [26]: > 100 µM
TGI [27]: > 100 µM
TGI [28]: > 100 µM
TGI [29]: > 100 µM
TGI [30]: 54.2 µM
TGI [31]: > 100 µM
TGI [32]: > 100 µM
TGI [56]: > 100 µM
TGI [33]: > 100 µM
TGI [34]: > 100 µM
TGI [35]: > 100 µM
TGI [36]: > 100 µM
TGI [37]: > 100 µM
TGI [38]: > 100 µM
TGI [39]: > 100 µM
TGI [40]: > 100 µM
TGI [57]: > 100 µM
TGI [41]: > 100 µM
TGI [58]: > 100 µM
TGI [59]: > 100 µM
TGI [42]: > 100 µM
TGI [43]: > 100 µM
TGI [44]: > 100 µM
TGI [46]: > 100 µM
TGI [47]: > 100 µM
TGI [48]: > 100 µM
TGI [49]: > 100 µM
TGI [50]: > 100 µM
TGI [51]: > 100 µM
TGI [52]: > 100 µM
